# Measured values published in patent US9961898B2, “Method for controlling plant disease” (SUMITOMO CHEMICAL COMPANY, LIMITED, priority 2008, dated 2018).
# Key:
# Format in all cases: in vivo
# Pythium disease = assay: Seed treatment, emergence of corn seedlings in Pythium-infested soil (tray test); settings: 14 days 10° C. then 11 days 18° C.; for Ratio of sound non-transgenic seeds: non-transgenic corn seeds; for Ratio of sound transgenic seeds: transgenic corn seeds (glyphosate tolerance, rootworm resistance)
# Procedure: Ethaboxam, formulated in a flowable concentrate for seed treatment use, was added to water so that the total slurry applied to a specified amount of seed would deliver a designated concentration of ethaboxam per 100 KG seed. The prepared slurry was applied to non-transgenic corn seeds and to transgenic corn seeds having both glyphosate tolerance and rootworm resistance. In a tray, Kimpack (absorbent cellulose wadding, trademark of Kimberly-Clark) was placed and wetted. Each of the corn seed types of each treatment rate was placed on the Kimpack and covered with soil, which is a 1:1 mixture of Pythium-infested field soil and sand. After keeping the soil saturated for 14 days at 10° C., the trays were transferred to 18° C. for 11 days.
# Pythium spp. = assay: Seed treatment, emergence of corn under field conditions; settings: for Ratio of sound non-transgenic seeds: non-transgenic corn seeds; for Ratio of sound transgenic seeds: transgenic corn seeds (glyphosate tolerance, rootworm resistance)
# Procedure: (§1) Ethaboxam, formulated in a flowable concentrate for seed treatment use, was added to water so that the total slurry applied to a specified amount of seed would deliver a designated concentration. The prepared slurry was applied to non-transgenic corn seeds and transgenic corn seeds having both glyphosate tolerance and rootworm resistance. […] Emergence (%) was determined at 7 and 14 DAP and recorded in Table 2.
# Pythium ultimum = assay: Seed treatment, emergence of cotton under field conditions; settings: for Ratio of sound non-transgenic seeds: non-transgenic cotton seeds; for Ratio of sound transgenic seeds: transgenic cotton seeds (Bacillus thuringiensis endotoxins, glyphosate tolerant)
# Procedure: as §1
# The same procedure as Test example 2 was conducted, except that cotton seeds which express Bacillus thuringiensis endotoxins and tolerant against glyphosate, were used in place of corn seeds. Disease incited by Pythium ultimum is reduced of the […]. The transgenic cotton source provided higher field stand establishment of seedlings when compared to the non-transgenic cotton. (Table 3).
smiles,measurement,setting,value
"CCNc1nc(CC)c(C(=O)NC(C#N)c2cccs2)s1 (centres unmarked) [ethaboxam, N-(cyano-2-thienylmethyl)-4-ethyl-2-(ethylamino)-5-thiazolecarboxamide]",Ratio of sound non-transgenic seeds,Pythium disease; ethaboxam 0.05 gai/100 kg seed,39%
same,Ratio of sound non-transgenic seeds,Pythium disease; ethaboxam 0.1 gai/100 kg seed,41%
same,Ratio of sound non-transgenic seeds,Pythium disease; ethaboxam 0.5 gai/100 kg seed,47%
same,Ratio of sound non-transgenic seeds,Pythium disease; ethaboxam 1.0 gai/100 kg seed,59%
same,Ratio of sound transgenic seeds,Pythium disease; ethaboxam 0.05 gai/100 kg seed,57%
same,Ratio of sound transgenic seeds,Pythium disease; ethaboxam 0.1 gai/100 kg seed,59%
same,Ratio of sound transgenic seeds,Pythium disease; ethaboxam 0.5 gai/100 kg seed,65%
same,Ratio of sound transgenic seeds,Pythium disease; ethaboxam 1.0 gai/100 kg seed,67%
same,Ratio of sound non-transgenic seeds,Pythium spp.; ethaboxam 0.05 gai/100 kg seed,74.5%
same,Ratio of sound non-transgenic seeds,Pythium spp.; ethaboxam 0.1 gai/100 kg seed,78.25%
same,Ratio of sound non-transgenic seeds,Pythium spp.; ethaboxam 0.5 gai/100 kg seed,76.25%
same,Ratio of sound non-transgenic seeds,Pythium spp.; ethaboxam 1.0 gai/100 kg seed,77.75%
same,Ratio of sound non-transgenic seeds,Pythium spp.; ethaboxam 5 gai/100 kg seed,81%
same,Ratio of sound non-transgenic seeds,Pythium spp.; ethaboxam 10 gai/100 kg seed,76.25%
same,Ratio of sound transgenic seeds,Pythium spp.; ethaboxam 0.05 gai/100 kg seed,86.25%
same,Ratio of sound transgenic seeds,Pythium spp.; ethaboxam 0.1 gai/100 kg seed,85%
same,Ratio of sound transgenic seeds,Pythium spp.; ethaboxam 0.5 gai/100 kg seed,89.25%
same,Ratio of sound transgenic seeds,Pythium spp.; ethaboxam 1.0 gai/100 kg seed,87.75%
same,Ratio of sound transgenic seeds,Pythium spp.; ethaboxam 5 gai/100 kg seed,86%
same,Ratio of sound transgenic seeds,Pythium spp.; ethaboxam 10 gai/100 kg seed,88.5%
same,Ratio of sound non-transgenic seeds,Pythium ultimum; ethaboxam 0.05 gai/100 kg seed,1.75%
same,Ratio of sound non-transgenic seeds,Pythium ultimum; ethaboxam 0.1 gai/100 kg seed,6.25%
same,Ratio of sound non-transgenic seeds,Pythium ultimum; ethaboxam 0.5 gai/100 kg seed,10.25%
same,Ratio of sound non-transgenic seeds,Pythium ultimum; ethaboxam 1.0 gai/100 kg seed,7%
same,Ratio of sound non-transgenic seeds,Pythium ultimum; ethaboxam 5 gai/100 kg seed,9.5%
same,Ratio of sound non-transgenic seeds,Pythium ultimum; ethaboxam 10 gai/100 kg seed,6.5%
same,Ratio of sound transgenic seeds,Pythium ultimum; ethaboxam 0.05 gai/100 kg seed,7.5%
same,Ratio of sound transgenic seeds,Pythium ultimum; ethaboxam 0.1 gai/100 kg seed,6.25%
same,Ratio of sound transgenic seeds,Pythium ultimum; ethaboxam 0.5 gai/100 kg seed,6%
same,Ratio of sound transgenic seeds,Pythium ultimum; ethaboxam 1.0 gai/100 kg seed,14.25%
same,Ratio of sound transgenic seeds,Pythium ultimum; ethaboxam 5 gai/100 kg seed,8.5%
same,Ratio of sound transgenic seeds,Pythium ultimum; ethaboxam 10 gai/100 kg seed,17.75%
